Test results reported in ChEMBL document CHEMBL1201862, “PubChem BioAssay data set” (2004).
“And” between values parts separate entries of the source, which are not always exact repeats. Identical values can stand only once. The source made the active and inactive calls. Rule as the data show it, for most assays here: actives have a measured EC50 and inactives only a lower limit.

Experiments:
[1] = target: Cytochrome P450 2D6 (Homo sapiens, UniProt P10635);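 also: CYP2D6 member of a cytochrome P450 panel assay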
[2] = target: T1, Heat shock factor protein 1 (Mus musculus, UniProt P38532); test: decrease of HSF1-responsive luciferase luminescence – cell-based, NIH3T3, dose retest, confirmation (AID 2382); assay type: functional;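 also: NIH3T3 fibroblasts with HSF1-driven luciferase reporter stressed by proteasome inhibitor MG132; luminescence from HSF1-driven luciferase expression after 8 hours of MG132 stress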
T1 sequence (P38532 whole entry): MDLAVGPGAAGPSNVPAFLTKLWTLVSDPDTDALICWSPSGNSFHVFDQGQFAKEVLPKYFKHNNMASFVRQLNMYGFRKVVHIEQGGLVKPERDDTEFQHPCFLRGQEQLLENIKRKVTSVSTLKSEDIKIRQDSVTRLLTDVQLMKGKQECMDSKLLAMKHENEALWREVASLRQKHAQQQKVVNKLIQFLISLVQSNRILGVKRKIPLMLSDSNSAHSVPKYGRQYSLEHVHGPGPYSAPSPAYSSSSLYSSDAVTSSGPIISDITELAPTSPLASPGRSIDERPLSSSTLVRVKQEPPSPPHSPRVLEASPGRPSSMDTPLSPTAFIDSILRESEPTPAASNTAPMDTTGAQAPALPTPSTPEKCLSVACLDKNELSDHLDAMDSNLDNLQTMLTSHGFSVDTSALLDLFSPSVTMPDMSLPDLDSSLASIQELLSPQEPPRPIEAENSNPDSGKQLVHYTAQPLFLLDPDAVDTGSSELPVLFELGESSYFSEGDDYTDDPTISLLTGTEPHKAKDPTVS

[3] = target: Cytochrome P450 3A4 (Homo sapiens, UniProt P08684);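 also: CYP3A4 tested as one member of a cytochrome P450 panel screen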
[4] = Trypanosoma cruzi growth suppression in host cells – NIH3T3 host cells, beta-gal luminescence, confirmation (AID 2044); assay type: functional, cell-based;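 also: intracellular parasites grown in NIH/3T3 mouse fibroblasts as host cells; luminescent beta-galactosidase reporter signal from transgenic T. cruzi replicating inside host cells; inhibitors lower the luminescence signal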
[5] = NIH3T3 cell viability loss – ATP luminescence, mouse fibroblasts, counter-screen, dose response (AID 2010); assay type: functional, cell-based;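 also: cells exposed to compound for about 90 hours before reading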
[6] = test system: Streptococcus sp. 'group A'; test: Streptococcus pyogenes SK(-)GAS viability under kanamycin – luminescence, BacTiterGlo, confirmation, counter-screen for streptokinase expression inhibitor project, dose response (AID 1900); assay type: functional, organism-based
[7] = test system: Streptococcus; test: GAS UMAA2166 growth inhibition – luminescence, BacTiterGlo, counter-screen for streptokinase expression inhibitor project, dose response (AID 1915); assay type: functional, organism-based;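 also: potency for reduction of bacterial viability or growth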

Chain of Cytochrome P450 3A4 (P08684 whole entry): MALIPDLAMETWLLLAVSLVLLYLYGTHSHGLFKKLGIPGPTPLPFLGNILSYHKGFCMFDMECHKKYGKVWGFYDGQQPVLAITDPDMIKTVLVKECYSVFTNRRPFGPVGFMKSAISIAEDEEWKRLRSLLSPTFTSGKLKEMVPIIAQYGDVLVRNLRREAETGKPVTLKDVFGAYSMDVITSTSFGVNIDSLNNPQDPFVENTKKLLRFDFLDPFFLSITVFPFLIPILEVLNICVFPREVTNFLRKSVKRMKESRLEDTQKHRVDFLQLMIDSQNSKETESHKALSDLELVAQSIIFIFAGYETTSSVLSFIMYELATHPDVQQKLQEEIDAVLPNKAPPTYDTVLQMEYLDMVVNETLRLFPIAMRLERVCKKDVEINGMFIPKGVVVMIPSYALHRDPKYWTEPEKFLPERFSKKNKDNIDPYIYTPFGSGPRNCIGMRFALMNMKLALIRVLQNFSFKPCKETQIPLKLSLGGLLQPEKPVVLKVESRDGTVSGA
Chain of Cytochrome P450 2D6 (P10635 whole entry): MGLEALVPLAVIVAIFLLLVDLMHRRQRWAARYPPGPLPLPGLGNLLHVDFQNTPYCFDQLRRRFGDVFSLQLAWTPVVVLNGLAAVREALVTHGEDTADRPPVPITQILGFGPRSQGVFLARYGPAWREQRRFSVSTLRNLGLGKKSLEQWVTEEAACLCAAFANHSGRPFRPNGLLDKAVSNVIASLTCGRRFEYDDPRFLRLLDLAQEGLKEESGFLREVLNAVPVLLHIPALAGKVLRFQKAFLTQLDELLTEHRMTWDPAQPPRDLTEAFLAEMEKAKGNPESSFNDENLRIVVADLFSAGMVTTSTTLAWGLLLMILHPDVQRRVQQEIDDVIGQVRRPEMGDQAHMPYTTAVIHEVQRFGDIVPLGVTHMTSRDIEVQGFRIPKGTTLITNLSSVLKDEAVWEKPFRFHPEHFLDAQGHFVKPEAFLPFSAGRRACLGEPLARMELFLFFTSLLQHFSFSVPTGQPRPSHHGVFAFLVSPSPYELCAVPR

Structure (SMILES): CCCCCC(=O)N1CCCC(c2nc(-c3ccc(OC)cc3)no2)C1 (stereo unspecified)
- AC50 [1]: 15.8 µM (inconclusive)

Structure (SMILES): COc1ccc(NC(=O)c2cc3cc(OC)ccc3oc2=N)cc1
- EC50 [2]: > 195 µM (not active)

Structure (SMILES): CN(Cc1ccccc1)C(=O)c1ccccc1NC(=O)C1=CSCCO1
- EC50 [2]: > 195 µM (not active)

Structure (SMILES): O=C(N/N=C1/C[C@@H](O)[C@@H](O)[C@@H]2[C@H]3C(=O)N(c4ccc(F)cc4F)C(=O)[C@@H]3CC[C@H]12)OCc1ccccc1
- AC50 [3]: 3.98 µM (inconclusive)

Structure (SMILES): CCC(C)(NC(=O)c1ccccc1)C(=O)O (stereo unspecified)
- EC50 [2]: > 195 µM (not active)

Structure (SMILES): CC(C)CNC(=O)C1CCN(Cc2ccc(OCc3ccccc3)cc2)CC1
- EC50 [2]: > 195 µM (not active)

Structure (SMILES): O=S(=O)(Nc1ccc2oc(-c3ccccc3)nc2c1)c1ccccc1
- AC50 [1]: 25.1 µM (inconclusive)

Structure (SMILES): CNC[C@H](O)c1ccc(OC(=O)C(C)(C)C)c(OC(=O)C(C)(C)C)c1
- AC50 [3]: 10 µM (inconclusive)

Structure (SMILES): Cc1cccc(CNc2cc(-c3ccccc3Cl)ncn2)c1
- AC50 [1]: 39.8 µM (inconclusive)

Structure (SMILES): CCOC(=O)N1CCN(Cc2nc3c(c(=O)n(C)c(=O)n3C)n2Cc2ccccc2)CC1
- EC50 [2]: > 195 µM (not active)

Structure (SMILES): O=C(c1ccncc1)N1CCN(c2ccc(F)cc2)CC1
- EC50 [2]: > 195 µM (not active)

Structure (SMILES): COC(=O)[C@@H]1c2cc3c(c(O)c2[C@@H](O)C[C@]1(C)O)C(=O)c1c(O)cc2c(c1C3=O)O[C@H]1O[C@@]2(C)[C@@H](O)[C@H](N(C)C)[C@H]1O
- AC50 [1]: 5.01 µM (inconclusive)

Structure (SMILES): COCC(=O)N1CCC2(CC1)CN(c1ccccn1)C2
- AC50 [1]: 20 µM (inconclusive)

Structure (SMILES): Cc1cccc2nc(CNC(=O)CC3C(=O)NCCN3Cc3cccc(F)c3)cn12 (stereo unspecified)
- EC50 [4]: > 60 µM (not active)
- EC50 [5]: > 60 µM (not active)

Structure (SMILES): CCOC(=O)C1(Cc2ccccc2C(F)(F)F)CCN(C(C)CCn2cccn2)CC1 (stereo unspecified)
- EC50 [4]: 0.944 µM (active)
- EC50 [5]: > 60 µM (not active)

Structure (SMILES): O=C(NCC1CCCO1)c1onc(CSc2ccc(Cl)cc2)c1C(=O)O (stereo unspecified)
- EC50 [2]: 9.58 µM (active)

Structure (SMILES): CCCOc1ccc(CNC(=S)N/N=C/c2ccc([N+](=O)[O-])cc2)cc1
- EC50 [4]: 1.99 µM (active)
- EC50 [5]: > 60 µM (not active)

Structure (SMILES): C/C(N)=C(/C#N)C(=O)CSc1nc2scc(-c3ccc(F)cc3)c2c(=O)n1C
- EC50 [6]: 2 µM (active)
- EC50 [7]: 3.17 µM (active)

Structure (SMILES): Cc1c(-c2cccc(NC(=O)c3ccco3)c2)nc2ncccn12
- EC50 [4]: 1.78 µM (active)
- EC50 [5]: > 60 µM (not active)

Structure (SMILES): CCOc1ccc(C(=O)c2ccc([N+](=O)[O-])cc2Cl)cc1
- EC50 [4]: 2.18 µM (active)
- EC50 [5]: > 30 µM (not active)

Structure (SMILES): C=CCN1CC[C@]23c4c5ccc(O)c4O[C@@H]2/C(=N/NC(=O)c2ccccc2)CC[C@@]3(O)[C@H]1C5
- AC50 [1]: 15.8 µM (inconclusive)
- AC50 [3]: 3.98 µM (inconclusive)

Structure (SMILES): Cc1ccc(C(=O)N/C(=C\c2ccc(Br)cc2)c2n[nH]c(S)n2)cc1
- EC50 [2]: > 195 µM (not active)
- AC50 [1]: 31.6 µM (inconclusive)

Structure (SMILES): COc1ccc(CN(C)CC(O)COc2ccc(-c3ccccc3)cc2)cc1OC (stereo unspecified)
- EC50 [4]: 0.447 µM (active)
- EC50 [5]: 21.7 µM (active)

Structure (SMILES): CCOC(=O)c1cccc(NC(=O)CCS(=O)(=O)c2ccc(Br)s2)c1
- EC50 [2]: > 195 µM (not active)

Structure (SMILES): Cc1ccc(C(=O)N/N=C\c2ccc([N+](=O)[O-])o2)cn1
- EC50 [4]: 0.238 µM (active)
- EC50 [5]: > 60 µM (not active)

Structure (SMILES): CN(C)c1ncc2nc(-c3ccc(F)cc3)c(=O)n(-c3ccccc3)c2n1
- AC50 [1]: 1.58 µM (inconclusive)

Structure (SMILES): C/C(CCC(=O)OC[C@@H]1O[C@H](C#Cc2ccccc2)C=C[C@@H]1Oc1ccc(C)cc1)=N/OC[C@@H](C)[C@H](OCc1ccccc1)C(C)C
- AC50 [3]: 3.98 µM (inconclusive)

Structure (SMILES): CC(C)n1cc(CN2CCN(C)C(CCO)C2)c2ccccc21 (stereo unspecified)
- EC50 [4]: 0.109 µM (active)
- EC50 [5]: > 60 µM (not active)

Structure (SMILES): COC1CCN(Cc2c(C(=O)N3CCN(C4CCCCC4)CC3)nc3ccccn23)CC1
- EC50 [4]: 1.63 µM (active)
- EC50 [5]: > 60 µM (not active)

Structure (SMILES): CCN1CCN(CCNC(=O)CCCCCn2c(=O)[nH]c3cc(C(=O)OC)ccc3c2=O)CC1
- EC50 [2]: > 195 µM (not active)

Structure (SMILES): O=c1c(CCc2ccccc2)nc2cncnc2n1Cc1ccc(F)cc1
- AC50 [1]: 25.1 µM (inconclusive)

Structure (SMILES): COc1cc(C(=O)NC2CCN(Cc3nnnn3Cc3cccs3)CC2)cc(OC)c1OC
- EC50 [2]: > 195 µM (not active)

Structure (SMILES): C/C(=N\NC(=O)CC1N=C(Cc2ccccc2)NNC1=O)c1ccc(Cl)cc1Cl (stereo unspecified)
- AC50 [1]: 15.8 µM (inconclusive)

Structure (SMILES): Cc1cc(C(F)F)nn1CC(=O)NC1C(=O)N2C(C(=O)O)=C(CSc3nnnn3C)CSC12 (stereo unspecified)
- EC50 [6]: 0.09 µM (active)
- EC50 [7]: 0.106 µM (active)

Structure (SMILES): Fc1cccc(NC(=S)N2CCn3cccc3C2c2cccnc2)c1 (stereo unspecified)
- EC50 [4]: 0.885 µM (active)
- EC50 [5]: > 60 µM (not active)

Structure (SMILES): CCc1cccc2c(-c3ccccc3)c3c(nc12)OCC3
- AC50 [1]: 15.8 µM (inconclusive)

Structure (SMILES): COc1ccc(OC)c2nc(O)c(CCNC(=O)c3ccc(S(=O)(=O)N4CCCC4)cc3)cc12
- AC50 [1]: 20 µM (inconclusive)

Structure (SMILES): CCO/C(O)=C1\C(C)=NC(=S)NC1c1ccsc1 (stereo unspecified)
- EC50 [2]: > 195 µM (not active)

Structure (SMILES): C=CCN(c1ccccc1)S(=O)(=O)c1cccc(C(=O)NC2CCN(Cc3ccccc3)CC2)c1
- EC50 [4]: 0.215 µM (active)
- EC50 [5]: 26.8 µM (active)

Structure (SMILES): COc1ccc(C(=O)N2CCC3(CCCN(Cc4ccccc4)C3)CC2)cc1
- AC50 [3]: 31.6 µM (inconclusive)

Structure (SMILES): CCOC(=O)C1(CCOc2ccccc2)CCN(Cc2cccc3c2OCO3)CC1
- EC50 [4]: 2.1 µM (active)
- EC50 [5]: > 60 µM (not active)

Structure (SMILES): O=C(NC(=S)Nc1ccc2c(c1)OCO2)c1ccccc1
- AC50 [1]: 3.55 µM (inconclusive)

Structure (SMILES): O=[N+]([O-])c1nn(-c2ccc3c(c2)OCCO3)[n+]([O-])c1NCc1ccc(F)cc1
- EC50 [4]: 0.595 µM (active)
- EC50 [5]: > 60 µM (inconclusive)

Structure (SMILES): CN1[C@@H]2CC[C@H]1CC(O[C@@H](c1ccccc1)c1ccc(Cl)cc1)C2 (stereo partly specified)
- AC50 [3]: 12.6 µM (inconclusive) and 15.8 µM (inconclusive)

Structure (SMILES): Cc1cc(C(F)(F)F)nc(SCc2ccc(C(=O)O)o2)n1
- EC50 [2]: > 195 µM (not active)

Structure (SMILES): Cc1ccc(NC(=O)c2cc(NC(=O)c3ccco3)ccc2N2CCOCC2)cc1
- EC50 [2]: > 195 µM (not active)

Structure (SMILES): Cc1cnc(CNc2ncncc2-c2ccccc2C)cn1
- AC50 [1]: 12.6 µM (inconclusive)

Structure (SMILES): COc1ccc(NC(=O)CCOc2ccccc2)cc1
- AC50 [1]: 22.4 µM (inconclusive)

Structure (SMILES): Cc1ccc2[nH]c(SCc3nc(O)c4cnn(-c5ccccc5)c4n3)nc2c1
- AC50 [1]: 28.2 µM (inconclusive)

Structure (SMILES): O=C(CSC1=NCCN1)Nc1ccccc1
- AC50 [3]: 5.01 µM (inconclusive)

Structure (SMILES): O=C(c1ccc2c3c(cccc13)CC2)C1CCCN(Cc2cccnc2)C1 (stereo unspecified)
- EC50 [4]: 0.709 µM (active)
- EC50 [5]: > 60 µM (not active)

Structure (SMILES): Clc1cc(/C=N\NC2=NCCN2)cc(Cl)n1
- EC50 [4]: 0.663 µM (active)
- EC50 [5]: > 60 µM (not active)
